Results published in PMC6925188, “PBRM1 acts as a p53 lysine-acetylation reader to suppress renal tumor growth” (Nature Communications, 2019).

Key:
[1] = tested on: endogenous PBRM1 and p53; test: Endogenous p53 immunoprecipitation, HEK293 cells; assay type: cell-based, human; details: 50 μM, 8 h
Excerpt: Fig. 1 PBRM1 and p53 display a physical association that is enhanced after DNA damage. a U2OS cells (left) and HEK293T cells (right) were transfected with vector or Flag-PBRM1 and harvested for immunoprecipitation with Flag-M2 beads and elution with 3X Flag peptide. […] Lysates were subjected to immunoprecipitation with Flag-M2 beads. […] Lysates were immunoprecipitated with p53 antibody. The bound PBRM1 and p53 were examined by immunoblots. Source data are provided as a Source Data file.

[2] = tested on: endogenous PBRM1 and p53; test: Endogenous p53 immunoprecipitation, kidney cancer cell lines; assay type: cell-based; details: ACHN, Caki-1 and Ren-01; 50 μM, 8 h
Experimental: For endogenous p53 immunoprecipitations, cell pellets were lysed in EBC buffer with protease and phosphatase inhibitors, 2 μM TSA and 10 mM NAM. Lysates (approximately 2 mg of total protein) were incubated with 2 μg p53 antibody (DO-1) overnight at 4 °C followed by incubation with protein A/G plus Sepharose (sc-2003, Santa Cruz Biotechnology) for 2 h. Beads were washed with EBC buffer four times, mixed with 1X SDS loading buffer (1% mercaptoethanol, 0.01% Bromophenol blue, 6% Glycerol, 2% SDS, 50 mM Tris-Cl (pH 6.8)) and analyzed by SDS-PAGE and immunoblot.
Supplementary Figure 1. Endogenous PBRM1 and p53 physically associate in kidney […]
μM) for 8 h and harvested for immunoprecipitation with control IgG and p53 antibodies. The bound PBRM1 and p53 were examined by immunoblots. Source data are provided as a Source […]
(1 picture or pasted object on this page, not shown here)

[3] = tested on: PBRM1 binding to CDKN1A; test: ChIP-qPCR, Flag antibody (Flag-PBRM1), CDKN1A gene, RCC4 cells; assay type: cell-based; set-up: unit not given here; details: 100 μM, 24 h
Experimental: (§1) Lysates were analyzed by immunoblots. c RCC4 cells with or without p53 KO were transfected with vector or Flag-PBRM1 at the indicated amounts. […] Cells were harvested for RT-qPCR (g) or ChIP followed by qPCR (h). […] Representative data is shown in i. Quantification of cell cycle phase is shown in j. Source data are provided as a Source Data file.
ChIP assays were performed with the Pierce Agarose ChIP Kit (26156, Thermo Scientific) according to the manufacturer’s instructions with minor revisions. In brief, samples were crosslinked with 1% paraformaldehyde and halted by 125 mM glycine. After washing twice with ice-cold PBS, cells were harvested and suspended in Lysis Buffer 1 and incubated on ice for 10 min. 1 × 10^7 nuclei were resuspended in 500 μl MNase Digestion Buffer containing 6.25 U Micrococcal Nuclease and incubated at 37 °C for 15 min. After the reaction was stopped, nuclei were pelleted by centrifugation and resuspended in 250 μl Lysis Buffer 2. Nuclei were sonicated at 10% amplitude for 10 s twice and incubated on ice for 30 min. After centrifugation, 50 μl supernatant containing the digested chromatin from 2 × 10^6 nuclei was diluted in 1× IP Dilution Buffer and incubated with antibodies (normal rabbit IgG for control, 1 μg FL393 + 1 μg DO-1 for p53 or 2 μg Flag M2 for Flag-PBRM1) overnight at 4 °C. […] of ChIP Grade Protein A/G Plus Agarose was added and incubated for 1 h at 4 °C. The agarose resins were washed once with IP Wash Buffer 1, twice with IP Wash Buffer 2 and once with IP Wash Buffer 3. 150 μl 1× IP Elution Buffer was added to the washed resin and incubated at 65 °C for 30 min with shaking. The eluate was treated with Proteinase K and DNA was extracted with columns provided in the kit.

[4] = tested on: RCC4 cells; details: 100 μM etoposide
Experimental: as §1
After washing with ice-cold PBS, cells were scraped on ice and centrifuged at 10,000 × g for 1 min at 4 °C. For immunoblot analysis, cell pellets were lysed in 1% SDS containing a protease inhibitor cocktail followed by sonication with a FB50 sonic dismembrator (Fisher Scientific) at 20% amplitude for 15 s twice. After centrifuging for 10 min at 14,000 × g, the supernatants were combined with 5X SDS loading buffer (5% mercaptoethanol, 0.05% Bromophenol blue, 30% glycerol, 10% SDS, 250 mM Tris-HCl (pH 6.8)), boiled for 5 min and used in SDS-PAGE. After standard western blot procedures, the blots were developed using the ImageQuant LAS 4000 (GE healthcare Life Sciences) or ChemiDoc MP Imaging System (Bio-rad) with HyGLO™ Chemiluminescent HRP Detection Reagent (E2500, Denville Scientific) or Immobilon™ Western Chemiluminescent HRP Substrate (WBKLS0500, Millipore). […]
the indicated times. Lysates were analyzed via immunoblots. b. […]
were analyzed by immunoblots. c. […]
Lysates were analyzed via immunoblots. e. […]
Lysates were analyzed via immunoblots. f, g, h. […]

With `COc1cc([C@@H]2c3cc4c(cc3[C@@H](O[C@@H]3O[C@@H]5CO[C@@H](C)O[C@H]5[C@H](O)[C@H]3O)[C@H]3COC(=O)[C@H]23)OCO4)cc(OC)c1O` [Etoposide] the “endogenous PBRM1 precipitated by p53” value [1] was “increased the amount of endogenous PBRM1 precipitated”, the “endogenous PBRM1 associated with endogenous p53” value [2] was “increased endogenous p53 associated with more endogenous PBRM1” and the “Flag ChIP at CDKN1A-RE1” value ([3]; RCC4-GFP, assay 1) was 0.0131. The “Flag ChIP at CDKN1A-TSS” value ([3]; RCC4-GFP, assay 1) was 0.013, the “Flag ChIP at CDKN1A-intron” value ([3]; RCC4-GFP, assay 1) was 0.0279 and the “Flag ChIP at CDKN1A-RE1” value ([3]; RCC4-GFP, assay 2) was 0.0381. For the same compound, the “Flag ChIP at CDKN1A-TSS” value ([3]; RCC4-GFP, assay 2) was 0.0086, the “Flag ChIP at CDKN1A-intron” value ([3]; RCC4-GFP, assay 2) was 0.0296 and the “Flag ChIP at CDKN1A-RE1” value ([3]; RCC4-GFP, assay 3) was 0.0109. For the same compound, the “Flag ChIP at CDKN1A-TSS” value ([3]; RCC4-GFP, assay 3) was 0.0269, the “Flag ChIP at CDKN1A-intron” value ([3]; RCC4-GFP, assay 3) was 0.0971 and the “Flag ChIP at CDKN1A-RE1” value ([3]; RCC4-PBRM1-BD4*, assay 1) was 0.1332. The “Flag ChIP at CDKN1A-TSS” value ([3]; RCC4-PBRM1-BD4*, assay 1) was 0.204, the “Flag ChIP at CDKN1A-intron” value ([3]; RCC4-PBRM1-BD4*, assay 1) was 0.0594 and the “Flag ChIP at CDKN1A-RE1” value ([3]; RCC4-PBRM1-BD4*, assay 2) was 0.168. For the same compound, the “Flag ChIP at CDKN1A-TSS” value ([3]; RCC4-PBRM1-BD4*, assay 2) was 0.1814, the “Flag ChIP at CDKN1A-intron” value ([3]; RCC4-PBRM1-BD4*, assay 2) was 0.0845 and the “Flag ChIP at CDKN1A-RE1” value ([3]; RCC4-PBRM1-BD4*, assay 3) was 0.1906. For the same compound, the “Flag ChIP at CDKN1A-TSS” value ([3]; RCC4-PBRM1-BD4*, assay 3) was 0.171, the “Flag ChIP at CDKN1A-intron” value ([3]; RCC4-PBRM1-BD4*, assay 3) was 0.0675 and the “Flag ChIP at CDKN1A-RE1” value ([3]; RCC4-PBRM1, assay 1) was 0.118. For the same compound, the “Flag ChIP at CDKN1A-TSS” value ([3]; RCC4-PBRM1, assay 1) was 0.1053, the “Flag ChIP at CDKN1A-intron” value ([3]; RCC4-PBRM1, assay 1) was 0.1192 and the “Flag ChIP at CDKN1A-RE1” value ([3]; RCC4-PBRM1, assay 2) was 0.114. The “Flag ChIP at CDKN1A-TSS” value ([3]; RCC4-PBRM1, assay 2) was 0.1575, the “Flag ChIP at CDKN1A-intron” value ([3]; RCC4-PBRM1, assay 2) was 0.074 and the “Flag ChIP at CDKN1A-RE1” value ([3]; RCC4-PBRM1, assay 3) was 0.1263. The “Flag ChIP at CDKN1A-TSS” value ([3]; RCC4-PBRM1, assay 3) was 0.1136, the “Flag ChIP at CDKN1A-intron” value ([3]; RCC4-PBRM1, assay 3) was 0.066 and the “p21 enhancement by PBRM1 BD4* mutant after p53 activation” value [4] was “failed to enhance p21 expression”.
